# How the values were obtained:
# hCB-1 [1] = molecular target: T1, hCB-1 (Homo sapiens, UniProt P21554); test: hCB1-CHO agonist mode SPA GTP-γ-35S binding assay; format: biochemical; conditions: for hCB-1 SPA GTPγS CHO Membrane Agonist % Relative Efficacy: normalized to full agonist methanandamide, below zero = inverse agonist; for EC50: human CB-1 CHO membranes, agonist mode (inverse agonism), read-out: hCB-1 SPA GTPγS CHO Membrane Agonist Relative EC50 inverse
# T1 construct: purchased Applied Cell Sciences, Rockville, Md; host or cells: CHO cells (membranes)
# T1 sequence (P21554 whole entry): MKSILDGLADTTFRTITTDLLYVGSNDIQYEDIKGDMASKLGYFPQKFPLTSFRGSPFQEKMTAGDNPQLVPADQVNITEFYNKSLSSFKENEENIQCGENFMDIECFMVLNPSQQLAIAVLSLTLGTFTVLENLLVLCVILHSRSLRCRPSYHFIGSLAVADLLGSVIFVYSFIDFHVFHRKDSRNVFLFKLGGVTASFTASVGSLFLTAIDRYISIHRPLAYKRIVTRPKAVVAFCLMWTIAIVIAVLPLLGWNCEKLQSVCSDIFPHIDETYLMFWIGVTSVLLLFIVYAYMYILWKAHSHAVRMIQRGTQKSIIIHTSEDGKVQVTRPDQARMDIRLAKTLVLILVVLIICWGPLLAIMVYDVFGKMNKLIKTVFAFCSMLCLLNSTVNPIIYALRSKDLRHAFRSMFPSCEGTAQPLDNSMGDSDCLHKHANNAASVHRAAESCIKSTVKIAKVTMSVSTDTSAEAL
# Protocol: (§1) Compounds of the present invention may be tested for functional activity at the CB-1 and CB-2 receptors in both agonist and antagonist modes using SPA (Scintillation Proximity Assay) based GTP-γ-^35S binding assays. All assay components are prepared in assay buffer (20 mM HEPES, 100 mM NaCl, 5 mM MgCl2, pH 7.4) at room temperature. Semi-log dilutions of test compound are prepared in assay buffer containing BSA (0.125% final conc.) for the agonist mode assays. For the antagonist mode assays, test compounds are prepared in the same manner but also include an 80% efficacious dose of a full agonist (methanandamide). GTP-γ^35S binding for the antagonist assay may be measured in a 96 well format using a modification of an antibody capture technique previously described. (DeLapp, N W, et al. (1999) J Pharmacol Exp Ther 289:946-955.) The CB-2 receptor agonist activity may be measured using a similar method using hCB2-Sf9 membranes. The CB-1 receptor agonist activity may be measured using a whole membrane capture technique using hCB1-CHO membranes. All incubations are done at room temperature.
# hCB1-CHO membrane, GDP (1 μM final conc.), and saponin (10 ng/mL final conc., Sigma, St Louis, Mo.) are combined and prepared on ice as for the antagonist assays, above. Diluted test compounds, GTP-γ-^35S (500 nM final conc.) and membranes are combined in the assay plate and incubated for 30 min. Then 1 mg/well Wheatgerm Agglutinin SPA beads (GE Healthcare, Piscataway, N.J.) are added, plates are sealed and vortexed and incubate for 1 hr. before spinning and counting in the same fashion as for the antagonist assays, above.
# (§2) Data are analyzed as follows: Background is subtracted from all wells. Percent agonist efficacy is determine by normalizing agonist/inverse agonist dose response data to the response obtained for a full agonist (methanandamide). Percent antagonist inhibition is calculated by first normalizing the data to the signal generated by a saturating concentration of the full agonist (methanandamide). Then the data are analyzed using a 4-parameter logistic reduced fit (Activity Base™ and XLFit3™ from IDBS, Emeryville, Calif.). Kb values are determined using a modification of the Cheng-Prusoff relationship: Kb=IC50/(1+[agonist]/EC50), where “IC50” is determined from a four parameter fit of displacement curves, “[agonist]” is the agonist challenge concentration (nM), and “EC50” is determined from a four parameter fit of a full agonist concentration response curve (Cheng and Prusoff 1973). Mean Kb values are calculated as a mean of at least three independent determinations±standard error of the mean (SEM). (Cheng Y C and Prusoff W H. (1973), Biochem Pharmacol 22:3099-3108.) Exemplified compounds are found to be potent CB-1 inverse agonists (Kb≦10 nM, typically <2 nM) and to be selective over the CB-2 receptor (Kb CB-2/Kb CB-1>500, typically >1000).
# rCB-1 = molecular target: T2, rCB-1 (Rattus norvegicus, UniProt P20272); test: rCB1-CHO antagonist mode SPA GTP-γ-35S binding assay; format: biochemical; conditions: rat CB-1 CHO membranes, antagonist mode vs methanandamide; read-out: rCB-1 SPA GTPγS CHO Membrane Antagonist Kb
# T2 construct: purchased Applied Cell Sciences, Rockville, Md; host or cells: CHO cells (membranes)
# T2 sequence (P20272 whole entry): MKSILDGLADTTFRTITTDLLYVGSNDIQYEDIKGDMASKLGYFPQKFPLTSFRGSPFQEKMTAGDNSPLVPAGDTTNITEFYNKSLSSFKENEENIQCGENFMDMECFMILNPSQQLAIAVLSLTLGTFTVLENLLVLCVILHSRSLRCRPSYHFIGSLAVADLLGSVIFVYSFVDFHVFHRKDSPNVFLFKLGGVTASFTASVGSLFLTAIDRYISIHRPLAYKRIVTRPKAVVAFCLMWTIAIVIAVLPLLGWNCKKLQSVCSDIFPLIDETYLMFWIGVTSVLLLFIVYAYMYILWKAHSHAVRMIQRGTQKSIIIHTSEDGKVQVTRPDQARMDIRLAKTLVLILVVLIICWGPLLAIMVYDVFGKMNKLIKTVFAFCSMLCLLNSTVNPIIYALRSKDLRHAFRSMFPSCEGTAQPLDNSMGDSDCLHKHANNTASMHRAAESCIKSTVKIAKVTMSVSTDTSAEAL
# Protocol: as §1
# (§3) hCB1-CHO and rCB1-CHO Antagonist Assays:
# hCB1-CHO or rCB1-CHO membranes (Applied Cell Sciences, Rockville, Md.) and GDP (1 μM final) are added to ice cold assay buffer and homogenized. […] Plates are then centrifuged at 700×g for 10 min. and the radioactivity counted.
# Data are analyzed as follows: Background is subtracted from all wells. […] Percent antagonist inhibition is calculated by first normalizing the data to the signal generated by a saturating concentration of the full agonist (methanandamide). Then the data are analyzed using a 4-parameter logistic reduced fit (Activity Base™ and XLFit3™ from IDBS, Emeryville, Calif.). Kb values are determined using a modification of the Cheng-Prusoff relationship: Kb=IC50/(1+[agonist]/EC50), where “IC50” is determined from a four parameter fit of displacement curves, “[agonist]” is the agonist challenge concentration (nM), and “EC50” is determined from a four parameter fit of a full agonist concentration response curve (Cheng and Prusoff 1973). […]
# CYP2C9 = molecular target: T3, CYP2C9 (Homo sapiens, UniProt P11712); test: Human CYP fingerprinting, sulfaphenazole inhibitor; format: in vitro ADME; conditions: 4 μM, human liver microsomes, 30 min, sulfaphenazole 5 μM
# T3 construct: pooled, mixed gender, human liver microsomes; from tissue; host or cells: pooled, mixed gender human liver microsomes
# T3 sequence (P11712 whole entry): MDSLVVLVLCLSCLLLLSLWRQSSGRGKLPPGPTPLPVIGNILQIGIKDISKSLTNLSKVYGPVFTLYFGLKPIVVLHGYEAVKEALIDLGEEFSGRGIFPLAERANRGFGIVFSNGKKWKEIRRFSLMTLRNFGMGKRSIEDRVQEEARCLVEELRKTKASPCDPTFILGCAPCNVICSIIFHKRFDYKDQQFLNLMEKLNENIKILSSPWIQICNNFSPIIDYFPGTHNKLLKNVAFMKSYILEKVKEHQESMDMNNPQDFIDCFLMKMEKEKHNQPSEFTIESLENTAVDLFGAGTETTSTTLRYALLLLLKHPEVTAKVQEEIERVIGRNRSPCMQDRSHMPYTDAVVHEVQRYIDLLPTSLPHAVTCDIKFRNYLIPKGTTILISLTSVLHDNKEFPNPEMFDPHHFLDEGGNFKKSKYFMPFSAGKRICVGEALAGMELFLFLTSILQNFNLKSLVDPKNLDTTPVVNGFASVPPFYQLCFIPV
# Protocol: (§4) CYP fingerprinting is well established technique and is used as an indication of potential risk of drug-drug interactions in the pharmaceutical sciences. Compounds of the present invention may be assayed by well known methods, essentially as follows: Compounds are incubated at 37° C. at a final concentration of 4 μM with pooled, mixed gender, human liver microsomes and 1 mM NADPH ([…]) (final conc.) for 0 and 30 min. without any CYP inhibitor and with each CYP inhibitor in separate incubations for 30 min. Each inhibitor is specific for an individual cytochrome P450. The specific inhibitors used for CYPs 2C9, 2D6 and 3A were sulfaphenazole, quinidine and ketoconazole, respectively. Ketoconazole (CYP3A) is made up at 25 mM in DMSO and then diluted in buffer to a final concetration of 10 μM. Quinidine (CYP2D6) is made up at 5 mM in 50/50 acetonitrile/water and then diluted in buffer to a final concetration of 10 μM. Sulfaphenazole (CYP2C9) is made up at 100 mM in DMSO and then diluted in buffer to a final concetration of 5 μM. Samples are analyzed by LC-MS in positive or negative electrospray mode using a Waters Acquity Ultra Performance LC coupled to a MicroMass Q-T of-2 mass spectrometer.
# (§5) Data are analyzed using MetaboLynx™ version 4.1. With inhibitor present, a reduction in metabolite peak area of less than 30% (relative to the uninhibited control incubation) receives a designation of low risk of Drug Drug Interaction (DDI), a reduction in peak area between 30% and 70% receives a moderate risk of DDI and a reduction of more than 70% receives a high risk of DDI.
# hCB-2 [2] = molecular target: T4, hCB-2 (Homo sapiens, UniProt P34972); test: hCB2-Sf9 antagonist mode SPA GTP-γ-35S binding assay; format: biochemical; conditions: human CB-2 Sf9 membranes, antagonist mode vs methanandamide; read-out: hCB-2 SPA GTPγS Sf9 Membrane Antagonist Kb
# T4 construct: purchased Perkin Elmer, Boston, Mass; host or cells: Sf9 insect cells (membranes)
# T4 sequence (P34972 whole entry): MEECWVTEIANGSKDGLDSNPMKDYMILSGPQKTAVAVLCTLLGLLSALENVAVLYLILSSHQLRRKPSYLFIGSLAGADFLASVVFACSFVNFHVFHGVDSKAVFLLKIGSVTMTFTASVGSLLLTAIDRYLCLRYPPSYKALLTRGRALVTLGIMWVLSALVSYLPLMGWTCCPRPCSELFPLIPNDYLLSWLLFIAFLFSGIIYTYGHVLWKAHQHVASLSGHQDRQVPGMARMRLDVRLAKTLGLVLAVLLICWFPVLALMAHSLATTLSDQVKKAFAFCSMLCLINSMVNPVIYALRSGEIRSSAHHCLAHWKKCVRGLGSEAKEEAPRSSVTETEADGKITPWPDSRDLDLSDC
# Protocol: as §1
# hCB1-Sf9 and hCB2-Sf9 antagonist Assays:
# hCB1-5f9 and hCB2-5f9 membranes (Perkin Elmer, Boston, Mass.) are prepared essentially as above with 1 μM (final conc.) GDP for hCB1-5f9 and 0.05 μM (final conc.) GDP for hCB2-5f9. The assay is run essentially as described for the CHO membranes above. Diluted membranes are pre-incubated with test compound for 15 min., which is followed by addition of GTP-γ-^35S and a further 35 min. incubation. Nonidet P40 and anti-Gi-antibody are added sequentially with a 15 min. incubation after each addition. The SPA beads are then added, the plates are sealed and vortexed, and then incubated at room temperature for 1 hr.
# Data are analyzed as follows: Background is subtracted from all wells. Percent agonist efficacy is determine by normalizing agonist/inverse agonist dose response data to the response obtained for a full agonist (methanandamide). Percent antagonist inhibition is calculated by first normalizing the data to the signal generated by a saturating concentration of the full agonist (methanandamide). Then the data are analyzed using a 4-parameter logistic reduced fit (Activity Base™ and XLFit3™ from IDBS, Emeryville, Calif.). Kb values are determined using a modification of the Cheng-Prusoff relationship: Kb=IC50/(1+[agonist]/EC50), where “IC50” is determined from a four parameter fit of displacement curves, “[agonist]” is the agonist challenge concentration (nM), and “EC50” is determined from a four parameter fit of a full agonist concentration response curve (Cheng and Prusoff 1973). Mean Kb values are calculated as a mean of at least three independent determinations±standard error of the mean (SEM). […]
# hCB-2 [3] = molecular target: T4, hCB-2; test: hCB2-Sf9 agonist mode SPA GTP-γ-35S binding assay; format: biochemical; conditions: human CB-2 Sf9 membranes, read-out: hCB-2 SPA GTPγS Sf9 Membrane Agonist Relative EC50
# Protocol: as §1
# The hCB2-5f9 assay is run essentially as for the hCB1-sf9 and hCB2-sf9 antagonist assays above, with no challenging agonist added. 1 μM (final conc.) GDP is added to the membrane solution and nonidet P40, anti-Gi-antibody, and SPA bead are added together in a cocktail.
# as §2
# hCB-1 [4] = molecular target: T1, hCB-1; test: hCB1-CHO antagonist mode SPA GTP-γ-35S binding assay; format: biochemical; conditions: human CB-1 CHO membranes, antagonist mode vs methanandamide; read-out: hCB-1 SPA GTPγS CHO Membrane Antagonist Kb
# Protocol: as §1, §3
# hCB1-CHO or rCB1-CHO membranes (Applied Cell Sciences, Rockville, Md.) and GDP (1 μM final) are added to ice cold assay buffer and homogenized. Diluted compounds, GTP-γ-^35S (500 nM final conc.) and membranes are added to wells of an assay plate and incubated for 30 min. at room temperature. Next, a mixture containing Nonidet P40 detergent (0.2% final conc.), rabbit polyclonal IgG Gαi-3 antibody (provided by Covance, Princeton, N.J.), and 1.25 mg anti-rabbit antibody scintillation proximity assay beads (GE Healthcare, Piscataway, N.J.) is added. The plates are sealed, vortexed, and incubated for an additional 2 hr. Plates are then centrifuged at 700×g for 10 min. and the radioactivity counted.
# Data are analyzed as follows: Background is subtracted from all wells. […] Percent antagonist inhibition is calculated by first normalizing the data to the signal generated by a saturating concentration of the full agonist (methanandamide). Then the data are analyzed using a 4-parameter logistic reduced fit (Activity Base™ and XLFit3™ from IDBS, Emeryville, Calif.). Kb values are determined using a modification of the Cheng-Prusoff relationship: Kb=IC50/(1+[agonist]/EC50), where “IC50” is determined from a four parameter fit of displacement curves, “[agonist]” is the agonist challenge concentration (nM), and “EC50” is determined from a four parameter fit of a full agonist concentration response curve (Cheng and Prusoff 1973). Mean Kb values are calculated as a mean of at least three independent determinations±standard error of the mean (SEM). […]
# CYP3A = test: Human CYP fingerprinting, ketoconazole inhibitor; format: in vitro ADME; conditions: 4 μM, human liver microsomes, 30 min, ketoconazole 10 μM
# Protocol: as §4, §5
# CYP2D6 = molecular target: T5, CYP2D6 (Homo sapiens, UniProt P10635); test: Human CYP fingerprinting, quinidine inhibitor; format: in vitro ADME; conditions: 4 μM, human liver microsomes, 30 min, quinidine 10 μM
# T5 construct: pooled, mixed gender, human liver microsomes; from tissue; host or cells: pooled, mixed gender human liver microsomes
# T5 sequence (P10635 whole entry): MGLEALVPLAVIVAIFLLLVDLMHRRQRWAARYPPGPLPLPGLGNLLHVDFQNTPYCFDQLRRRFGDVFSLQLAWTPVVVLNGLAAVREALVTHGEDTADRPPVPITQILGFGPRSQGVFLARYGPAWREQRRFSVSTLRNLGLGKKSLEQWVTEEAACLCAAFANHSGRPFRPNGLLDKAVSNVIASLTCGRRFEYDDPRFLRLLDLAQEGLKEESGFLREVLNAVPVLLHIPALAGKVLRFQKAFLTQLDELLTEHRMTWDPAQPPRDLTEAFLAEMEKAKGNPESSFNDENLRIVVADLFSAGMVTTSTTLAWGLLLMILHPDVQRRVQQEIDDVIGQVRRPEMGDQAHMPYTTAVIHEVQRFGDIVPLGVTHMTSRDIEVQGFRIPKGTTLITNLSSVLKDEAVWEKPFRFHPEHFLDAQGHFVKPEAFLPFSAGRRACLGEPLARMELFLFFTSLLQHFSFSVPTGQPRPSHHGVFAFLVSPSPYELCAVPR
# Protocol: as §4, §5
SMILES,hCB-1 SPA GTPγS CHO Membrane Agonist % Relative Efficacy (hCB-1 [1]) [%],Kb (rCB-1) [nM],Risk of Drug Drug Interaction (DDI) CYP2C9 (CYP2C9),Kb (hCB-2 [2]) [nM],EC50 (hCB-2 [3]) [nM],Kb (hCB-1 [4]) [nM],Risk of Drug Drug Interaction (DDI) CYP3A (CYP3A),EC50 (hCB-1 [1]) [nM],Risk of Drug Drug Interaction (DDI) CYP2D6 (CYP2D6)
"CC(C)(N[C@@H]1C[C@H](c2cccc(OC(F)(F)F)c2)N(c2ccc(C(F)(F)F)cc2)C1=O)c1ccnc(C(F)(F)F)n1 [Example 1, (3R,5R)-3-[1-Methyl-1-(2-trifluoromethyl-pyrimidin-4-yl)-ethylamino]-5-(3-trifluoromethoxy-phenyl)-1-(4-trifluoromethyl-phenyl)-pyrrolidin-2-one]",−99.3,0.177,low (a reduction in metabolite peak area of less than 30% (relative to the uninhibited control incubation) receives a designation of low risk of Drug Drug Interaction (DDI)),> 8710,> 8710,0.895,–,–,–
"CC(C)(N[C@@H]1C[C@H](c2cccc(OC(F)(F)F)c2)N(c2ccc(C(F)(F)F)cc2)C1=O)c1ccnc(C2CC2)n1 [Example 2, (3R,5R)-3-[1-(2-Cyclopropyl-pyrimidin-4-yl)-1-methyl-ethylamino]-5-(3-trifluoromethoxy-phenyl)-1-(4-trifluoromethyl-phenyl)-pyrrolidin-2-one]",−108,–,low (a reduction in metabolite peak area of less than 30% (relative to the uninhibited control incubation) receives a designation of low risk of Drug Drug Interaction (DDI)),> 10800,> 10800,0.644,low (a reduction in metabolite peak area of less than 30% (relative to the uninhibited control incubation) receives a designation of low risk of Drug Drug Interaction (DDI)),2.39,low (a reduction in metabolite peak area of less than 30% (relative to the uninhibited control incubation) receives a designation of low risk of Drug Drug Interaction (DDI))
"CC(C)(N[C@@H]1C[C@H](c2cccc(F)c2)N(c2ccc(OC(F)(F)F)cc2)C1=O)c1ccnc(C(F)(F)F)n1 [Example 3, (3R,5R)-3-[1-Methyl-1-(2-trifluoromethyl-pyrimidin-4-yl)-ethylamino]-5-(3-fluoro-phenyl)-1-(4-trifluoromethoxy-phenyl)-pyrrolidin-2-one]",−107,0.195,low (a reduction in metabolite peak area of less than 30% (relative to the uninhibited control incubation) receives a designation of low risk of Drug Drug Interaction (DDI)),397,379,0.916,low (a reduction in metabolite peak area of less than 30% (relative to the uninhibited control incubation) receives a designation of low risk of Drug Drug Interaction (DDI)),1.11,low (a reduction in metabolite peak area of less than 30% (relative to the uninhibited control incubation) receives a designation of low risk of Drug Drug Interaction (DDI))
"CC(C)(N[C@@H]1C[C@H](c2cccc(OC(F)(F)F)c2)N(c2ccc(C(F)(F)F)cc2)C1=O)c1ccnc(C(F)(F)F)n1 [Example 6, (3R,5R)-3-[1-Methyl-1-(2-trifluoromethyl-pyrimidin-4-yl)-ethylamino]-5-(3-trifluoromethoxy-phenyl)-1-(4-trifluoromethyl-phenyl)-pyrrolidin-2-one adipate]",–,–,–,–,–,–,low (a reduction in metabolite peak area of less than 30% (relative to the uninhibited control incubation) receives a designation of low risk of Drug Drug Interaction (DDI)),–,low (a reduction in metabolite peak area of less than 30% (relative to the uninhibited control incubation) receives a designation of low risk of Drug Drug Interaction (DDI))

# Source: US8420654B2 (Eli Lilly and Company, priority 2008, dated 2013)
